“Also recorded” adds a separate entry of the source.
Legend:
Type in all cases: cell-based, rat
HCN cells [1] = test: Astroglial differentiation of HCN cells induced by LIF/BMP2/FBS; conditions: 50 ng/ml LIF, 50 ng/ml BMP2 and 0.5% FBS; compound A 20 μM, RA 5 μM; listed as Compound A
HCN cells [2] = test: Cytotoxic effects on HCN cells
NeuroD1 and NeuN = test: BrdU labeling with immunocytochemistry to detect NeuroD1 and NeuN; conditions: HCN cells (FIG. 4)
Method: (§1) Immunocytochenzistry: Cells were fixed with 4% paraformaldehyde for 30 min and washed with PBS, and then blocked for 1 hour at room temperature in PBS containing 0.3% Triton X-100 and 5% donkey serum (PBS-B). Samples were incubated in PBS-B containing dilutions (1:1500) of two primary antibodies for 24 hrs at 4° C., washed three times with PBS, and incubated w secondary antibodies conjugated to Cy3 (Jackson ImmunoResearch Laboratories, Inc.) Alexa Fluor 488 (Molecular Probe Inc.). The samples then were treated with 1 μg/mL 4′,6-diamidino-2-phenylindole (DAPI) for 30 min at room temperature, and then washed three times with PBS.
(§2) RA). After 5 hours, the medium was changed and 10 μM of 5-bromo-2′-deoxy-uridine (BrdU) (final concentration) was added to each well. After treatment with BrdU for 2 hours, cells were fixed, washed three times with 01M Tris-buffer, and incubated in 2N HCl at 37° for 30 min. After treatment with 0.1M borate buffer (pH 8.5) for 10 min, cells were washed three times with PBS and treated with blocking buffer (PBS containing 0.3% Triton-X and 5% donkey serum) for 60 min. After overnight incubation with anti-BrdU (1:400) antibody, cells were washed with PBS and incubated with secondary antibody conjugated to Cy3 (1:1000) for 2 hours. After washing with PBS, BrdU-positive cells were counted.

HCN cells [3] = test: BrdU proliferation assay; conditions: HCN cells treated 5 hours in bFGF-free N2 medium; 15, 10, 5 μM Compound A or 1, 0.5, 0.25 μM RA; BrdU 2 hours
Method: BrdU proliferation assay: Cells were treated with compounds (Compound A and
as §2

Sox2 = test: Semi-quantitative RT-PCR of marker genes: Sox2; conditions: HCN cells, 10 μM Compound A versus compound-free N2 medium
NeuroD1 = test: Semi-quantitative RT-PCR of marker genes: NeuroD1; conditions: HCN cells, 10 μM Compound A versus compound-free N2 medium
[4] = tested on: HCN cells (adult hippocampal neural progenitor cells); test: Neuronal and astroglial differentiation of HCN cells by TuJ1/GFAP double-immunofluorescence staining; conditions: for Relative activity at ECmax: ECmax relative to Compound A, compound 2 (100) and DMSO (0 or no active, N/A), AP = Anti-proliferation
Method: Cell Culture: Neural precursor cells isolated from the hippocampus of adult female Fischer 344 rats^(1) were maintained in N2 supplemented (Invitrogen) DMEM: Ham's F12 (Omega scientific) medium containing 20 ng/mL FGF-2 (PeproTech Inc.) HCN cells were expanded and maintained in an undifferentiated state on a polyornithine/laminin-coated dish in a defined serum-free growth medium (DMEM/F12 supplemented with N2 and 20 ng/ml bFGF) in a homogeneous monolayer. Neuronal and astroglial differentiation was analyzed directly with double-immunofluorescence staining of βIII tubulin (TuJ1) as a neuronal marker and glial fibrillary acidic protein (GFAP) as an astroglial marker. A combinatorial heterocycle library of 50,000 compounds was screened using undifferentiated, early passage HCN cells plated onto polyornithine/lamin-coated 384-well plates at a density of 6,000 cells/well in complete growth medium. After overnight incubation, the medium was exchanged with bFGF-free basal medium, and 5 μM of the compounds (final concentration) were added to each well. After treatment with compound for four days, cells were fixed and stained with βIII tubulin/TUJ1 and GFAP antibodies, the morphology of positively stained cells was analyzed, and the number of cells with the desired phenotypes was counted.
as §1
A combinatorial heterocycle library of 50,000 compounds was screened using undifferentiated, early passage HCN cells plated onto polyornithine/lamin-coated 384-well plates at a density of 6,000 cells/well in complete growth medium. After overnight incubation, the medium was exchanged with bFGF-free basal medium, and 5 μM of the compounds (final concentration) were added to each well. After treatment with compound for four days, cells were fixed and stained with βIII tubulin/TUJ1 and GFAP antibodies, the morphology of positively stained cells was analyzed, and the number of cells with the desired phenotypes was counted.

[5] = HCN cells treated with Compound A

| Compound | inhibition of astroglial differentiation induced by LIF and BMP2 (HCN cells [1]) | visible cytotoxic effects (HCN cells [2]; [5]) | expression of neuron-specific marker genes NeuroD1 and NeuN (NeuroD1 and NeuN) | cell proliferation (BrdU-positive cells) (HCN cells [3]) | Sox2 (neural progenitor marker) mRNA level (Sox2) | NeuroD1 (neuronal cell marker) mRNA level (NeuroD1) | Relative activity at ECmax [4] | cells differentiated into neuronal cells (immunostaining with TuJ1 and characteristic neuronal morphology) [4, 5] | neuronal differentiation-inducing activity (screen and sublibrary) ([4]; HCN cells, bFGF-free basal medium, four days) | lineage specificity: GFAP-positive (astroglial) versus neuronal cells after treatment ([4]; four days in N2 media, 10 μM Compound A or 2 μM RA (FIG. 2)) | staining for later stage neuronal markers neurofilament-H and Map2(a+b) ([4]; seven days of treatment with 10 μM Compound A) | cytotoxicity (HCN cells [2]; over 2 μM in growth factor (bFGF or LIF/BMP2)-free basal medium) |
| --- | --- | --- | --- | --- | --- | --- | --- | --- | --- | --- | --- | --- |
| CCOC(=O)c1ccc(N(C)c2csc(-c3ccccc3)n2)cc1 [Compound 2] | can also inhibit astroglial differentiation; also recorded: can competitively suppress astrogliogenesis by LIF/BMP2/FBS in a dose-dependent manner | without visible cytotoxic effects | induces expression of neuron-specific marker genes | significantly slowed cell proliferation | down-regulated | up-regulated | 100 | more than 90% | highest activity among the analogues tested | GFAP-positive cells were very rarely detected | positive staining | – |
| CC1=C(/C=C/C(C)=C/C=C/C(C)=C/C(=O)O)C(C)(C)CCC1 [RA, retinoic acid, reference compound] | – | – | – | – | – | – | – | – | – | – | – | significant cytotoxicity |
| ethyl 4-(2-phenylthiazol-4-ylamino) benzoate [Compound 1] | – | – | – | – | – | – | 10 | – | – | – | – | – |

Source: patent publication US8105581B2, “Compositions and methods for inducing neuronal differentiation” (The Scripps Research Institute, priority 2005, dated 2012)
